Results as given in patent publication US6540988B1, “Method of reducing or preventing malodour” (Quest International B.V., priority 1998, dated 2003).

System: bacterial production of odoriferous steroids
Assay: sub-lethal inhibition of the bacterial production of odoriferous steroids
Type: cell-based

CC(C)(C)NC(=O)[C@H]1CC[C@H]2[C@@H]3CC[C@H]4NC(=O)C=C[C@]4(C)[C@H]3CC[C@]12C [finasteride] was tested, and the “sub-lethally inhibiting the bacterial production of odoriferous steroids” value was “incapable of sub-lethally inhibiting”.
